Reference: patent US8455240B2, “Use of thermophilic sulphate-reducing archaea for the implementation of a process for the degradation of hydrocarbons” (Institut de Recherche pour le Development (I.R.D.), priority 2005, dated 2013)
“And” between values parts separate entries of the source, which are not always exact repeats. Equal values may be shown once.

Key:
[1] = system: strain L-3; assay: Sources of carbon and energy used by the strain L-3; assay type: cell-based, Archaeoglobus fulgidus CNCM I-3465 (strain L-3); conditions: for OD 580 nm Final / OD 580 nm Initial / H2S (480 nm): thiosulphate as electron acceptor
Protocol: (§1) Experimentally, 4 ml of Cord-Ruwish reagent comprising 50 mmol/l of HCl and 5 mmol/l of CuSO4 are added to 0.1 ml of sample. Copper sulphate (CuSO4) by reacting with hydrogen sulphide (H2S), forms a copper sulphide precipitate (CuS) after the reaction: CuSO4+H2S→CuS+H2SO4
(§2) According to this method, the CuS is assayed by spectrophotometry at 480 nm. The readings are carried out against a blank constituted by 4 ml of Cord-Ruwish reagent.
(§3) The analysis and quantification of the metabolites are carried out by HPLC by measuring the disappearance of the substrate and the appearance of different metabolism products.
The study of the growth of the strain L-3 in the presence of different sources of carbon and energy was carried out with thiosulphate as an electron acceptor. The monitoring was carried out by estimation of the cell biomass (OD 580 nm), by assay of the sulphide production (Cord-Ruwish). The results were confirmed by HPLC analyses, and completed in certain cases by a CO2 assay.

[2] = system: Archaeoglobus fulgidus; assay: Screening for hydrocarbon degradation, A. fulgidus (sulphide production, Cord-Ruwish); assay type: cell-based; conditions: for sulphide production (OD 480) 0 d: aromatics solubilized in HMN; for ΔS tf-ti: final minus initial sulphide
Protocol: as §1, §2
(§4) The study of the hydrocarbon degradation abilities is an experiment which requires a particularly long incubation. Thus, it was carried out in Bellco tubes sealed with thick rubber stoppers.
(§5) For these experiments, tubes containing 10 ml of culture medium without substrate, are 10% inoculated, then the hydrocarbon is introduced by injection through the stopper.
(§6) The hydrocarbons chosen are model molecules belonging to the different classes of hydrocarbons, namely: • hexadecane (CH3(CH2)14CH3, C16), a saturated linear aliphatic hydrocarbon; • hexadecene (CH3(CH2)13CHCH2, C16:1), an unsaturated linear aliphatic hydrocarbon of biogenic origin; • dibenzothiophene (DBT, C12H8S), a sulphur-containing aromatic hydrocarbon.
(§7) The aliphatic hydrocarbons (C16; C16:1) are added to the corresponding tubes, at a rate of 0.04 ml/10 ml of culture medium. The aromatic hydrocarbons (DBT) are solubilized in 2,2,4,4,6,8,8-heptamethylnonane (HMN, C16H34) at a rate of 20 mg/ml of HMN, and 0.75 ml of this solution is injected into 10 ml of culture medium.
(§8) 3 tubes were produced for each test and control. The growth of the strains was monitored indirectly by the production of sulphide.
(§9) A subculture was carried out starting from the preceding experiment on naphthalene, DBT solubilized as previously in HMN, and on HMN alone, for the two strains studied.

[3] = system: strain L-3; assay: Screening for hydrocarbon degradation, strain L-3 (sulphide production, Cord-Ruwish); assay type: cell-based, Archaeoglobus fulgidus CNCM I-3465 (strain L-3); conditions: for sulphide production (OD 480) 0 d: aromatics solubilized in HMN
Protocol: as §1, §2, §4, §5, §6, §7, §8, §9

[4] = system: Archaeoglobus fulgidus (DSM 4304); assay: Degradation of different substrates by A. fulgidus as a function of the electron acceptor; assay type: cell-based; conditions: for ability of Archaeoglobus fulgidus to oxidize the substrate: thiosulphate or sulphate as electron acceptor
Protocol: as §1, §2, §3
(§10) The study of the degradation abilities of different substrates of the strain L-3 was based on a comparison with the collection strain, Archaeoglobus fulgidus (DSM 4304). The degradation of the substrates, by the two strains was monitored by a measurement of the cell biomass at 580 nm, a sulphide assay produced according to the Cord-Ruwish method, a study of the degradation metabolites by HPLC, completed by a CO2 assay with a GPC-Katharometer.
(§11) Two series of tests were prepared, one with thiosulphate, the other with sulphate as an electron acceptor.

[5] = system: strain L-3; assay: Degradation of different substrates by the strain L-3 as a function of the electron acceptor; assay type: cell-based, Archaeoglobus fulgidus CNCM I-3465 (strain L-3); set-up: total H2S: unit not given here; conditions: for ability of the strain L-3 to degrade the substrate: thiosulphate or sulphate as electron acceptor
Protocol: as §1, §2, §3, §10, §11

[6] = system: A. fulgidus; assay: Subculture on hydrocarbons, A. fulgidus (sulphide production); assay type: cell-based, Archaeoglobus fulgidus
Protocol: as §1, §2, §9
(§12) For this subculture, apart from the tests containing the hydrocarbon (DBT, naphthalene (Naph), […]), and seeded with the previously chosen inoculum, abiotic controls (negative controls) containing the substrate (hydrocarbon) but not inoculated were produced for the purpose of quantifying the sulphide production which could be due to chemical reactions between the different constituents of the medium. In these controls there was no development in the concentration of sulphide over a period of 20 days (Table 4).

[7] = system: strain L-3; assay: Subculture on hydrocarbons, strain L-3 (sulphide production); assay type: cell-based, Archaeoglobus fulgidus CNCM I-3465 (strain L-3)
Protocol: as §1, §2, §9, §12

[8] = sulphate as electron acceptor, unit from b116
[9] = thiosulphate as electron acceptor
[10] = thiosulphate as electron acceptor, unit from b116
[11] = choice of the inoculum for the subculture, tubes of the screening

CC(=O)O [Acetate]
OD 580 nm Final [1]: 0.0904 and 0.0812
OD 580 nm Initial [1]: 0.0671 and 0.0771
H2S (480 nm) ([1]; unit from b126): 0.4 mM and 0.3 mM

CCCCCCCCCCCCCCCC [C16, hexadecane]
sulphide production (OD 480) 0 d [2]: 0.7 mM and 0.8 mM and 0.9 mM
sulphide production (OD 480) 70 d [2]: 1 mM and 0.5 mM and 0.8 mM
sulphide production (OD 480) 0 d [3]: 0.6 mM and 0.5 mM and 0.9 mM

O=CO [Formate]
final OD 580 ([4]; sulphate as electron acceptor): 0.1 and 0.1157
initial OD 580 ([4]; sulphate as electron acceptor): 0.0805 and 0.0853
total H2S [4, 8]: 3.6 mM and 5 mM
final OD 580 [4, 9]: 0.1218 and 0.1208
initial OD 580 [4, 9]: 0.1107 and 0.1183
total H2S [4, 10]: 5.8 mM and 7.4 mM
ability of Archaeoglobus fulgidus to oxidize the substrate [4]: capable of oxidizing
final OD 580 ([5]; sulphate as electron acceptor): 0.0711 and 0.064
initial OD 580 ([5]; sulphate as electron acceptor): 0.0585 and 0.0634
total H2S ([5]; sulphate as electron acceptor): 2.5 and 5
final OD 580 [5, 9]: 0.1048 and 0.1186
initial OD 580 [5, 9]: 0.1003 and 0.1241
total H2S [5, 9]: 3.6 and 2.8
ability of the strain L-3 to degrade the substrate [5]: does not develop
OD 580 nm Final [1]: 0.0672 and 0.0759
OD 580 nm Initial [1]: 0.0765 and 0.0875
H2S (480 nm) ([1]; unit from b126): 0.2 mM and 0.4 mM

O=C(CO)[C@@H](O)[C@H](O)[C@H](O)CO [Fructose, fructose]
HPLC analyses, initial quantity of the substrate ([1]; no increase in biomass or sulphide, explained by isomerization at high temperature): reduction in the initial quantity of the substrate
OD 580 nm Final [1]: 0.1003 and 0.0893
OD 580 nm Initial [1]: 0.0663 and 0.0818
H2S (480 nm) ([1]; unit from b126): 0.3 mM

O=C(O)/C=C/C(=O)O [Fumarate]
final OD 580 ([4]; sulphate as electron acceptor): 0.1122 and 0.14
initial OD 580 ([4]; sulphate as electron acceptor): 0.0759 and 0.085
total H2S [4, 8]: 2.4 mM and 3.1 mM
total H2S ([4]; sulphate as electron acceptor, unit from b116, listed as fumarate): ≤ 3.1 mM
final OD 580 [4, 9]: 0.1399 and 0.1535
initial OD 580 [4, 9]: 0.1085 and 0.117
total H2S [4, 10]: 5.1 mM and 6.5 mM
total H2S ([4]; thiosulphate as electron acceptor, unit from b116, listed as fumarate): 6.5 mM
ability of Archaeoglobus fulgidus to oxidize the substrate [4]: capable of oxidizing
final OD 580 ([5]; sulphate as electron acceptor): 0.1085 and 0.0899
initial OD 580 ([5]; sulphate as electron acceptor): 0.0606 and 0.062
total H2S ([5]; sulphate as electron acceptor): 2.5 and 3.3
final OD 580 [5, 9]: 0.1431 and 0.1137
initial OD 580 [5, 9]: 0.1083 and 0.0796
total H2S [5, 9]: 3.2 and 2.5
ability of the strain L-3 to degrade the substrate [5]: capable of degrading

c1ccc2ccccc2c1 [Naphthalene, naphthalene]
sulphide production (OD 480) 0 d [2]: 0.8 mM
sulphide production (OD 480) 10 d [2]: 0.4 mM and 0.6 mM and 0.8 mM
sulphide production (OD 480) 45 d ([2]; 45 d): 0.8 mM and 1.1 mM and 1.4 mM
sulphide production (OD 480) 60 d [2]: 0.7 mM and 1.2 mM
sulphide production (OD 480) 70 d [2]: 1.3 mM and 1.7 mM
H2S [2, 11]: 1.3 mM and 1.7 mM
ΔS tf-ti [2]: 0.5 mM and 0.9 mM
sulphide production (OD 480) 0 d [3]: 0.8 mM and 0.6 mM
sulphide production (OD 480) 10 d ([3]; 10 d): 0.4 mM and 0.3 mM and 0.6 mM
sulphide production (OD 480) 45 d [3]: 0.9 mM and 1 mM and 0.8 mM
sulphide production (OD 480) 60 d [3]: 0.6 mM and 0.5 mM
sulphide production (OD 480) 70 d [3]: 1.7 mM and 1.3 mM and 1.1 mM
H2S [3, 11]: 1.3 mM and 1.1 mM
sulphide production (OD 480) 0 d ([6]; 0 d): 0.2 mM
sulphide production (OD 480) 8 d ([6]; 8 d): 0.8 mM and 0.4 mM and 0.5 mM
sulphide production (OD 480) 0 d ([7]; 0 d): 0.2 mM (2×) and 0.3 mM
sulphide production (OD 480) 8 d ([7]; 8 d): 0.5 mM and 0.4 mM and 0.6 mM
sulphide production (OD 480) 22 d ([7]; 22 d): 0.9 mM and 0.5 mM and 0.8 mM
sulphide production (OD 480) 45 d ([7]; 45 d): 0.9 mM and 0.7 mM and 1.3 mM
ΔS tf-ti ([7]; final minus initial sulphide): 0.7 mM and 0.5 mM and 1 mM

c1ccc2c(c1)ccc1ccccc12 [Phenanthrene, phenanthrene]
sulphide production (OD 480) 10 d [2]: 1.1 mM and 0.8 mM and 1.4 mM
sulphide production (OD 480) 60 d [2]: 0.8 mM and 0.5 mM
ΔS tf-ti [2]: ≤ 0.5 mM
sulphide production (OD 480) 45 d [3]: 0.5 mM and 1 mM and 0.8 mM
sulphide production (OD 480) 60 d [3]: 0.4 mM and 0.5 mM and 0.3 mM
sulphide production (OD 480) 70 d [3]: 0.5 mM and 0.6 mM and 0.8 mM
ΔS tf-ti ([3]; final minus initial sulphide): ≤ 0.5 mM

CCC(=O)O [Propionate, propionate]
OD 580 nm Final [1]: 0.0871 and 0.072
OD 580 nm Initial [1]: 0.0669 and 0.0717
H2S (480 nm) ([1]; unit from b126): 0.3 mM

CC(=O)C(=O)O [Pyruvate, pyruvate]
final OD 580 ([4]; sulphate as electron acceptor): 0.1643 and 0.1575
initial OD 580 ([4]; sulphate as electron acceptor): 0.1281 and 0.1377
total H2S ([4]; sulphate as electron acceptor): 10.3 mM and 7.3 mM
final OD 580 [4, 9]: 0.3668 and 0.3489
initial OD 580 [4, 9]: 0.1368 and 0.1351
final OD 580 ([5]; sulphate as electron acceptor): 0.0958 and 0.0944
initial OD 580 ([5]; sulphate as electron acceptor): 0.0603 and 0.0636
total H2S ([5]; sulphate as electron acceptor): 3.5 and 3.3
final OD 580 [5, 9]: 0.1161 and 0.0863
initial OD 580 [5, 9]: 0.0785 and 0.0911
total H2S [5, 9]: 4
H2S (480 nm) [1]: 5.2 mM
OD 580 nm Final [1]: 0.1315 and 0.1758
OD 580 nm Initial [1]: 0.067 and 0.0713
